PubChem BioAssay (NCI)
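GI50 is the concentration that inhibits growth by half. TGI: total growth inhibition.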

What was measured:
Test in all cases: NCI-60 cell line screen, 384-well format
786-0 renal = test system: 786-0 renal
A549 NSCLC = test system: A549 NSCLC
ACHN renal = test system: ACHN renal
BT-549 breast = test system: BT-549 breast
COLO 205 colon = test system: COLO 205 colon
DU-145 prostate = test system: DU-145 prostate
EKVX NSCLC = test system: EKVX NSCLC
HCC-2998 colon = test system: HCC-2998 colon
HCT-15 colon = test system: HCT-15 colon
HL-60(TB) leukemia = test system: HL-60(TB) leukemia
HOP-62 NSCLC = test system: HOP-62 NSCLC
HOP-92 NSCLC = test system: HOP-92 NSCLC
HS 578T breast = test system: HS 578T breast
K-562 leukemia = test system: K-562 leukemia
KM12 colon = test system: KM12 colon
LOX IMVI melanoma = test system: LOX IMVI melanoma
M14 melanoma = test system: M14 melanoma
MALME-3M melanoma = test system: MALME-3M melanoma
MCF7 breast = test system: MCF7 breast
MDA-MB-231 breast = test system: MDA-MB-231 breast
MDA-MB-435 melanoma = test system: MDA-MB-435 melanoma
MDA-MB-468 breast = test system: MDA-MB-468 breast
MOLT-4 leukemia = test system: MOLT-4 leukemia
NCI-H226 lung = test system: NCI-H226 lung
NCI-H23 lung = test system: NCI-H23 lung
NCI-H322M lung = test system: NCI-H322M lung
NCI-H460 NSCLC = test system: NCI-H460 NSCLC
NCI-H522 lung = test system: NCI-H522 lung
NCI/ADR-RES ovarian = test system: NCI/ADR-RES ovarian
OVCAR-3 ovarian = test system: OVCAR-3 ovarian
OVCAR-4 ovarian = test system: OVCAR-4 ovarian
OVCAR-5 ovarian = test system: OVCAR-5 ovarian
RPMI-8226 leukemia = test system: RPMI-8226 leukemia
SF-268 CNS = test system: SF-268 CNS
SF-539 CNS = test system: SF-539 CNS
SK-MEL-2 melanoma = test system: SK-MEL-2 melanoma
SN12C renal = test system: SN12C renal
SNB-19 CNS = test system: SNB-19 CNS
SNB-75 CNS = test system: SNB-75 CNS
SR leukemia = test system: SR leukemia
SW-620 colon = test system: SW-620 colon
T-47D breast = test system: T-47D breast
TK-10 renal = test system: TK-10 renal
U251 glioblastoma = test system: U251 glioblastoma
UACC-257 melanoma = test system: UACC-257 melanoma
UACC-62 melanoma = test system: UACC-62 melanoma
UO-31 renal = test system: UO-31 renal

## C=CC(=O)Nc1cccc(Oc2nc(Nc3ccc(N4CCN(C)CC4)cc3)nc3ccsc23)c1
786-0 renal
  GI50: 1460 nM
  TGI: 2810 nM
A549 NSCLC
  GI50: 1640 nM
  TGI: 3500 nM
ACHN renal
  GI50: 1260 nM
  TGI: 2690 nM
BT-549 breast
  GI50: 1380 nM
  TGI: 2690 nM
COLO 205 colon
  GI50: 1830 nM
  TGI: 3250 nM
DU-145 prostate
  GI50: 1420 nM
  TGI: 3210 nM
EKVX NSCLC
  GI50: 1310 nM
  TGI: 3840 nM
HCC-2998 colon
  GI50: 1700 nM
  TGI: 3090 nM
HCT-15 colon
  GI50: 1560 nM
  TGI: 3030 nM
HL-60(TB) leukemia
  GI50: 1600 nM
  TGI: 2970 nM
HOP-62 NSCLC
  GI50: 2000 nM
  TGI: 4540 nM
HOP-92 NSCLC
  GI50: 1370 nM
  TGI: 2950 nM
HS 578T breast
  GI50: 1450 nM
  TGI: 2800 nM
K-562 leukemia
  GI50: 1380 nM
  TGI: 2720 nM
KM12 colon
  GI50: 1590 nM
  TGI: 3120 nM
LOX IMVI melanoma
  GI50: 1810 nM
  TGI: 3220 nM
M14 melanoma
  GI50: 1890 nM
  TGI: 3320 nM
MALME-3M melanoma
  GI50: 1760 nM
  TGI: 3160 nM
MCF7 breast
  GI50: 1550 nM
  TGI: 2960 nM
MDA-MB-231 breast
  GI50: 1700 nM
  TGI: 3330 nM
MDA-MB-435 melanoma
  GI50: 1780 nM
  TGI: 3200 nM
MDA-MB-468 breast
  GI50: 191 nM
  TGI: 629 nM
MOLT-4 leukemia
  GI50: 1530 nM
  TGI: 2890 nM
NCI-H226 lung
  GI50: 1570 nM
  TGI: 3880 nM
NCI-H23 lung
  GI50: 1940 nM
  TGI: 5370 nM
NCI-H322M lung
  GI50: 902 nM
  TGI: 3350 nM
NCI-H460 NSCLC
  GI50: 1620 nM
  TGI: 3030 nM
NCI-H522 lung
  GI50: 334 nM
  TGI: 1410 nM
NCI/ADR-RES ovarian
  GI50: 1940 nM
  TGI: 4000 nM
OVCAR-3 ovarian
  GI50: 923 nM
  TGI: 2200 nM
OVCAR-4 ovarian
  GI50: 1690 nM
  TGI: 3130 nM
OVCAR-5 ovarian
  GI50: 2020 nM
  TGI: 5790 nM
RPMI-8226 leukemia
  GI50: 1460 nM
  TGI: 2780 nM
SF-268 CNS
  GI50: 1840 nM
  TGI: 4010 nM
SF-539 CNS
  GI50: 1750 nM
  TGI: 3150 nM
SK-MEL-2 melanoma
  GI50: 1610 nM
  TGI: 2970 nM
SN12C renal
  GI50: 1350 nM
  TGI: 2750 nM
SNB-19 CNS
  GI50: 1820 nM
  TGI: 3700 nM
SNB-75 CNS
  GI50: 1350 nM
  TGI: 2740 nM
SR leukemia
  GI50: 857 nM
  TGI: 1950 nM
SW-620 colon
  GI50: 1740 nM
  TGI: 3140 nM
T-47D breast
  GI50: 1500 nM
  TGI: 2840 nM
TK-10 renal
  GI50: 957 nM
  TGI: 2250 nM
U251 glioblastoma
  GI50: 1650 nM
  TGI: 3060 nM
UACC-257 melanoma
  GI50: 1520 nM
  TGI: 2870 nM
UACC-62 melanoma
  GI50: 1520 nM
  TGI: 2870 nM
UO-31 renal
  GI50: 1390 nM
  TGI: 2700 nM
